# Results as given in the supplement of paper PMC4862054.
# Tested on: HCC1937
# Assay: normalised response (% of control), CellTox Green; higher = less cell death (100 = DMSO, 0 = benzethonium chloride kill control)
# Settings: incubation time: 72 h
# Procedure, shortened: (§1)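 The table gives the normalised signal for a single concentration in each entry. Breast cancer cell lines were seeded (20 µl suspension) into 384-well plates holding compound at 5 concentrations in 10-fold steps over a compound-specific 10,000-fold range and incubated 72 h, then read for CellTox Green fluorescence (485/520 nm) and CellTiter-Glo luminescence. Normalisation on each plate used 0.1 % DMSO (100) and a positive kill control (0).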
row,SMILES,normalised response [%]
1,CC(=O)Nc1cccc(-n2c(=O)n(C3CC3)c(=O)c3c(Nc4ccc(I)cc4F)n(C)c(=O)c(C)c32)c1 [Trametinib] (25 nM),124
2,N#Cc1ccc(C(c2ccc(C#N)cc2)n2cncn2)cc1 [Letrozole] (1000 nM),67.6
3,CCCS(=O)(=O)Nc1ccc(F)c(C(=O)c2c[nH]c3ncc(-c4ccc(Cl)cc4)cc23)c1F [Vemurafenib] (1000 nM),108
4,O=C(/C=C/c1cccnc1)NCCCCC1CCN(C(=O)c2ccccc2)CC1 [Daporinad] (100 nM),27.6
5,CCCCC(=O)OCC(=O)[C@]1(O)Cc2c(O)c3c(c(O)c2[C@@H](O[C@H]2C[C@H](NC(=O)C(F)(F)F)[C@H](O)[C@H](C)O2)C1)C(=O)c1c(OC)cccc1C3=O [Valrubicin] (500 nM),167
6,CC1=C(/C=C/C(C)=C/C=C/C(C)=C/C(=O)O)C(C)(C)CCC1 [Tretinoin] (1000 nM),93.8

# Tested on: HDQ-P1
# Assay: as above
# Settings: incubation time: 72 h
# Procedure, shortened: as §1
row,SMILES,normalised response [%]
1,COc1cc([C@@H]2c3cc4c(cc3[C@@H](O[C@@H]3O[C@@H]5CO[C@@H](c6cccs6)O[C@H]5[C@H](O)[C@H]3O)[C@H]3COC(=O)[C@H]23)OCO4)cc(OC)c1O [Teniposide] (1000 nM),102
2,CC(=O)Nc1cccc(-n2c(=O)n(C3CC3)c(=O)c3c(Nc4ccc(I)cc4F)n(C)c(=O)c(C)c32)c1 [Trametinib] (25 nM),92.3
3,N#Cc1ccc(C(c2ccc(C#N)cc2)n2cncn2)cc1 [Letrozole] (1000 nM),102
4,CCCS(=O)(=O)Nc1ccc(F)c(C(=O)c2c[nH]c3ncc(-c4ccc(Cl)cc4)cc23)c1F [Vemurafenib] (1000 nM),73.9
5,O=C(/C=C/c1cccnc1)NCCCCC1CCN(C(=O)c2ccccc2)CC1 [Daporinad] (100 nM),103
6,CCCCC(=O)OCC(=O)[C@]1(O)Cc2c(O)c3c(c(O)c2[C@@H](O[C@H]2C[C@H](NC(=O)C(F)(F)F)[C@H](O)[C@H](C)O2)C1)C(=O)c1c(OC)cccc1C3=O [Valrubicin] (500 nM),131
7,CC1=C(/C=C/C(C)=C/C=C/C(C)=C/C(=O)O)C(C)(C)CCC1 [Tretinoin] (1000 nM),91.2

# Tested on: Hs578T
# Assay: as above
# Settings: incubation time: 72 h
# Procedure, shortened: as §1
row,SMILES,normalised response [%]
1,COc1cc([C@@H]2c3cc4c(cc3[C@@H](O[C@@H]3O[C@@H]5CO[C@@H](c6cccs6)O[C@H]5[C@H](O)[C@H]3O)[C@H]3COC(=O)[C@H]23)OCO4)cc(OC)c1O [Teniposide] (1000 nM),98.2
2,CC(=O)Nc1cccc(-n2c(=O)n(C3CC3)c(=O)c3c(Nc4ccc(I)cc4F)n(C)c(=O)c(C)c32)c1 [Trametinib] (25 nM),113
3,N#Cc1ccc(C(c2ccc(C#N)cc2)n2cncn2)cc1 [Letrozole] (1000 nM),106
4,CCCS(=O)(=O)Nc1ccc(F)c(C(=O)c2c[nH]c3ncc(-c4ccc(Cl)cc4)cc23)c1F [Vemurafenib] (1000 nM),100
5,O=C(/C=C/c1cccnc1)NCCCCC1CCN(C(=O)c2ccccc2)CC1 [Daporinad] (100 nM),20
6,CCCCC(=O)OCC(=O)[C@]1(O)Cc2c(O)c3c(c(O)c2[C@@H](O[C@H]2C[C@H](NC(=O)C(F)(F)F)[C@H](O)[C@H](C)O2)C1)C(=O)c1c(OC)cccc1C3=O [Valrubicin] (500 nM),127
7,CC1=C(/C=C/C(C)=C/C=C/C(C)=C/C(=O)O)C(C)(C)CCC1 [Tretinoin] (1000 nM),59.5

# Tested on: MCF-10A
# Assay: as above
# Settings: incubation time: 72 h
# Procedure, shortened: as §1
row,SMILES,normalised response [%]
1,COc1cc([C@@H]2c3cc4c(cc3[C@@H](O[C@@H]3O[C@@H]5CO[C@@H](c6cccs6)O[C@H]5[C@H](O)[C@H]3O)[C@H]3COC(=O)[C@H]23)OCO4)cc(OC)c1O [Teniposide] (1000 nM),75.1
2,CC(=O)Nc1cccc(-n2c(=O)n(C3CC3)c(=O)c3c(Nc4ccc(I)cc4F)n(C)c(=O)c(C)c32)c1 [Trametinib] (25 nM),81.3
3,N#Cc1ccc(C(c2ccc(C#N)cc2)n2cncn2)cc1 [Letrozole] (1000 nM),114
4,CCCS(=O)(=O)Nc1ccc(F)c(C(=O)c2c[nH]c3ncc(-c4ccc(Cl)cc4)cc23)c1F [Vemurafenib] (1000 nM),88.2
5,O=C(/C=C/c1cccnc1)NCCCCC1CCN(C(=O)c2ccccc2)CC1 [Daporinad] (100 nM),98.1
6,CCCCC(=O)OCC(=O)[C@]1(O)Cc2c(O)c3c(c(O)c2[C@@H](O[C@H]2C[C@H](NC(=O)C(F)(F)F)[C@H](O)[C@H](C)O2)C1)C(=O)c1c(OC)cccc1C3=O [Valrubicin] (500 nM),113
7,CC1=C(/C=C/C(C)=C/C=C/C(C)=C/C(=O)O)C(C)(C)CCC1 [Tretinoin] (1000 nM),80.4

# Tested on: MDA-MB-231
# Assay: as above
# Settings: incubation time: 72 h
# Procedure, shortened: as §1
row,SMILES,normalised response [%]
1,COc1cc([C@@H]2c3cc4c(cc3[C@@H](O[C@@H]3O[C@@H]5CO[C@@H](c6cccs6)O[C@H]5[C@H](O)[C@H]3O)[C@H]3COC(=O)[C@H]23)OCO4)cc(OC)c1O [Teniposide] (1000 nM),61.2
2,CC(=O)Nc1cccc(-n2c(=O)n(C3CC3)c(=O)c3c(Nc4ccc(I)cc4F)n(C)c(=O)c(C)c32)c1 [Trametinib] (25 nM),66.4
3,N#Cc1ccc(C(c2ccc(C#N)cc2)n2cncn2)cc1 [Letrozole] (1000 nM),98.9
4,CCCS(=O)(=O)Nc1ccc(F)c(C(=O)c2c[nH]c3ncc(-c4ccc(Cl)cc4)cc23)c1F [Vemurafenib] (1000 nM),97
5,O=C(/C=C/c1cccnc1)NCCCCC1CCN(C(=O)c2ccccc2)CC1 [Daporinad] (100 nM),112
6,CCCCC(=O)OCC(=O)[C@]1(O)Cc2c(O)c3c(c(O)c2[C@@H](O[C@H]2C[C@H](NC(=O)C(F)(F)F)[C@H](O)[C@H](C)O2)C1)C(=O)c1c(OC)cccc1C3=O [Valrubicin] (500 nM),157
7,CC1=C(/C=C/C(C)=C/C=C/C(C)=C/C(=O)O)C(C)(C)CCC1 [Tretinoin] (1000 nM),96.5

# Tested on: MDA-MB-436
# Assay: as above
# Settings: incubation time: 72 h
# Procedure, shortened: as §1
row,SMILES,normalised response [%]
1,COc1cc([C@@H]2c3cc4c(cc3[C@@H](O[C@@H]3O[C@@H]5CO[C@@H](c6cccs6)O[C@H]5[C@H](O)[C@H]3O)[C@H]3COC(=O)[C@H]23)OCO4)cc(OC)c1O [Teniposide] (1000 nM),90.5
2,CC(=O)Nc1cccc(-n2c(=O)n(C3CC3)c(=O)c3c(Nc4ccc(I)cc4F)n(C)c(=O)c(C)c32)c1 [Trametinib] (25 nM),97.2
3,N#Cc1ccc(C(c2ccc(C#N)cc2)n2cncn2)cc1 [Letrozole] (1000 nM),87.6
4,CCCS(=O)(=O)Nc1ccc(F)c(C(=O)c2c[nH]c3ncc(-c4ccc(Cl)cc4)cc23)c1F [Vemurafenib] (1000 nM),65.4
5,O=C(/C=C/c1cccnc1)NCCCCC1CCN(C(=O)c2ccccc2)CC1 [Daporinad] (100 nM),103
6,CCCCC(=O)OCC(=O)[C@]1(O)Cc2c(O)c3c(c(O)c2[C@@H](O[C@H]2C[C@H](NC(=O)C(F)(F)F)[C@H](O)[C@H](C)O2)C1)C(=O)c1c(OC)cccc1C3=O [Valrubicin] (500 nM),131
7,CC1=C(/C=C/C(C)=C/C=C/C(C)=C/C(=O)O)C(C)(C)CCC1 [Tretinoin] (1000 nM),96.4

# Tested on: MDA-MB-453
# Assay: as above
# Settings: incubation time: 72 h
# Procedure, shortened: as §1
row,SMILES,normalised response [%]
1,COc1cc([C@@H]2c3cc4c(cc3[C@@H](O[C@@H]3O[C@@H]5CO[C@@H](c6cccs6)O[C@H]5[C@H](O)[C@H]3O)[C@H]3COC(=O)[C@H]23)OCO4)cc(OC)c1O [Teniposide] (1000 nM),111
2,CC(=O)Nc1cccc(-n2c(=O)n(C3CC3)c(=O)c3c(Nc4ccc(I)cc4F)n(C)c(=O)c(C)c32)c1 [Trametinib] (25 nM),111
3,N#Cc1ccc(C(c2ccc(C#N)cc2)n2cncn2)cc1 [Letrozole] (1000 nM),96.4
4,CCCS(=O)(=O)Nc1ccc(F)c(C(=O)c2c[nH]c3ncc(-c4ccc(Cl)cc4)cc23)c1F [Vemurafenib] (1000 nM),104
5,O=C(/C=C/c1cccnc1)NCCCCC1CCN(C(=O)c2ccccc2)CC1 [Daporinad] (100 nM),104
6,CCCCC(=O)OCC(=O)[C@]1(O)Cc2c(O)c3c(c(O)c2[C@@H](O[C@H]2C[C@H](NC(=O)C(F)(F)F)[C@H](O)[C@H](C)O2)C1)C(=O)c1c(OC)cccc1C3=O [Valrubicin] (500 nM),131
7,CC1=C(/C=C/C(C)=C/C=C/C(C)=C/C(=O)O)C(C)(C)CCC1 [Tretinoin] (1000 nM),114

# Tested on: MDA-MB-468
# Assay: as above
# Settings: incubation time: 72 h
# Procedure, shortened: as §1
row,SMILES,normalised response [%]
1,COc1cc([C@@H]2c3cc4c(cc3[C@@H](O[C@@H]3O[C@@H]5CO[C@@H](c6cccs6)O[C@H]5[C@H](O)[C@H]3O)[C@H]3COC(=O)[C@H]23)OCO4)cc(OC)c1O [Teniposide] (1000 nM),94.5
2,CC(=O)Nc1cccc(-n2c(=O)n(C3CC3)c(=O)c3c(Nc4ccc(I)cc4F)n(C)c(=O)c(C)c32)c1 [Trametinib] (25 nM),103
3,N#Cc1ccc(C(c2ccc(C#N)cc2)n2cncn2)cc1 [Letrozole] (1000 nM),75.9
4,CCCS(=O)(=O)Nc1ccc(F)c(C(=O)c2c[nH]c3ncc(-c4ccc(Cl)cc4)cc23)c1F [Vemurafenib] (1000 nM),127
5,O=C(/C=C/c1cccnc1)NCCCCC1CCN(C(=O)c2ccccc2)CC1 [Daporinad] (100 nM),125
6,CCCCC(=O)OCC(=O)[C@]1(O)Cc2c(O)c3c(c(O)c2[C@@H](O[C@H]2C[C@H](NC(=O)C(F)(F)F)[C@H](O)[C@H](C)O2)C1)C(=O)c1c(OC)cccc1C3=O [Valrubicin] (500 nM),276
7,CC1=C(/C=C/C(C)=C/C=C/C(C)=C/C(=O)O)C(C)(C)CCC1 [Tretinoin] (1000 nM),109

# Tested on: MFM-223
# Assay: as above
# Settings: incubation time: 72 h
# Procedure, shortened: as §1
row,SMILES,normalised response [%]
1,COc1cc([C@@H]2c3cc4c(cc3[C@@H](O[C@@H]3O[C@@H]5CO[C@@H](c6cccs6)O[C@H]5[C@H](O)[C@H]3O)[C@H]3COC(=O)[C@H]23)OCO4)cc(OC)c1O [Teniposide] (1000 nM),69.6
2,CC(=O)Nc1cccc(-n2c(=O)n(C3CC3)c(=O)c3c(Nc4ccc(I)cc4F)n(C)c(=O)c(C)c32)c1 [Trametinib] (25 nM),101
3,N#Cc1ccc(C(c2ccc(C#N)cc2)n2cncn2)cc1 [Letrozole] (1000 nM),88.4
4,CCCS(=O)(=O)Nc1ccc(F)c(C(=O)c2c[nH]c3ncc(-c4ccc(Cl)cc4)cc23)c1F [Vemurafenib] (1000 nM),98
5,O=C(/C=C/c1cccnc1)NCCCCC1CCN(C(=O)c2ccccc2)CC1 [Daporinad] (100 nM),70.9
6,CCCCC(=O)OCC(=O)[C@]1(O)Cc2c(O)c3c(c(O)c2[C@@H](O[C@H]2C[C@H](NC(=O)C(F)(F)F)[C@H](O)[C@H](C)O2)C1)C(=O)c1c(OC)cccc1C3=O [Valrubicin] (500 nM),108
7,CC1=C(/C=C/C(C)=C/C=C/C(C)=C/C(=O)O)C(C)(C)CCC1 [Tretinoin] (1000 nM),97.5

# Tested on: BT-474
# Assay: normalised response (% of control), CellTiter-Glo; higher = more viable cells (100 = DMSO, 0 = benzethonium chloride kill control)
# Settings: incubation time: 72 h
# Procedure, shortened: as §1
row,SMILES,normalised response [%]
1,COc1cc([C@@H]2c3cc4c(cc3[C@@H](O[C@@H]3O[C@@H]5CO[C@@H](c6cccs6)O[C@H]5[C@H](O)[C@H]3O)[C@H]3COC(=O)[C@H]23)OCO4)cc(OC)c1O [Teniposide] (1000 nM),47.6
2,CC(=O)Nc1cccc(-n2c(=O)n(C3CC3)c(=O)c3c(Nc4ccc(I)cc4F)n(C)c(=O)c(C)c32)c1 [Trametinib] (25 nM),73.5
3,N#Cc1ccc(C(c2ccc(C#N)cc2)n2cncn2)cc1 [Letrozole] (1000 nM),94.4
